Patent publication US12559863B2, “Macrocyclic modulators of disease associated protein misfolding and aggregation” (RESQ BIOTECH, priority 2017, dated 2026)
Where a SMILES comes first, the peptide text is derived from it.

Assays:
[1] = test system: primary mouse hippocampal neurons; test: MTT cell viability in primary hippocampal neurons; format: cell-based; details: for neurotoxicity of Aβ40: 1 μM Aβ40, 1:1 and 2:1 peptides:Aβ; for neurotoxicity of Aβ40 / neurotoxicity of Aβ42: 24 h, MTT; for neurotoxicity of Aβ42: 1 μM Aβ42, 1:1 and 2:1 peptides:Aβ; for growth-promoting effects or cytotoxicity of peptide on its own: peptide alone, no Aβ
Protocol: The media/agents for primary neuronal cell cultures were purchased from Thermo Fisher Scientific (USA). Hippocampal neuronal cultures were obtained from postnatal day 1 female pups of C57BL/6 mice. Briefly, after being dissected, the hippocampus was incubated with 0.25% trypsin for 15 min at 37° C. The hippocampi were then rinsed in 10 mL of Hibernate containing 10% (v/v) heat-inactivated fetal bovine serum (FBS). Cultures were maintained in Neurobasal-A medium containing 2% B-27 supplement, 0.5 mM Gluta-MAX and 1% penicillin/streptomycin at 37° C. and 5% CO2. Half of the medium was replaced twice a week. Neuronal hippocampal cells were plated at a density of approximately 2×10^4 per well in 96-well plates and 5×10^5 per well in 24-well plates for MTT and induced cell death assays, respectively. After seven days of incubation in culture well plates, the primary hippocampal neurons were used for the cell viability measurements.
(§1) Solutions of synthetic Aβ40 or Aβ42 (10 μM) in PBS, preincubated at 37° C. (3 d for Aβ40 solutions and 1 d for Aβ42 solutions) in the presence or absence of synthetic cyclic peptides (1:1 and 2:1 ratio of peptides:Aβ), were diluted with fresh medium and transferred into wells at a 1 μM final Aβ concentration. Cell viability was determined using the MTT assay. MTT (3-[4,5-dimethylthiazol-2-yl]-2,5-diphenyl tetrazolium bromide) was purchased from Applichem (Germany). After 24 h of exposure to Aβ solutions, 100 μL of a 0.5 mg/mL stock solution of MTT in Neurobasal-A was added to each well of primary hippocampal neurons followed by a 3 h incubation at 37° C., while 100 μL of a 1 mg/mL stock solution of MTT in DMEM complete medium was added to each well of U87MG cells followed by a 4 h incubation at 37° C. The medium was then removed and the cells were diluted in DMSO. The relative formazan concentration was measured by determination of the absorbance at 540 nm using a plate reader (Tecan, Austria). Results were expressed as the percentage of MTT reduction, assuming that the absorbance of control (untreated) cells was 100%, and represent the mean of three independent experiments with six replicate wells for each condition. Induced cell death was also qualitatively examined by phase-contrast microscopy (Carl Zeiss, Axiovert 25 CFL, Germany) using the above solutions. In each run, the effect of solutions of plain synthetic peptides and plain Aβ40 or Aβ42 was independently checked to serve as internal control.

[2] = test system: glioblastoma cell line U87MG; format: cell-based, human; details: for Aβ-induced toxicity in U87MG: MTT
Protocol: The utilized U87MG cells (human glioblastoma-astrocytoma, epithelial-like cell line) were kind a gift from Dr. Maria Paravatou-Petsotas, Radiobiology Laboratory, Institute of Nuclear & Radiological Sciences & Technology, Energy & Safety, NCSR “Demokritos”. The utilized media/agents for U87MG cell cultures were obtained from Biochrom AG (Germany) and PAA Laboratories (USA). U87MG cells were grown in Dulbecco's modified Eagle medium (DMEM), supplemented with 10% fetal bovine serum (FBS), 2.5 mM L-glutamine, 1% penicillin/streptomycin at 37° C. and 5% CO2. For MTT cytotoxicity studies, cells were plated at a density of 2×10^4 cells per well in 96-well plates and incubated at 37° C. for 24 h to allow cells to attach. The medium was subsequently removed and cells were rendered quiescent by incubation in serum-free medium for 24 h. For cell viability measurements cells were subsequently treated with the indicated concentrations of Aβ in the presence or absence of synthetic peptides, as described in Materials and Methods.
as §1

[3] = test system: C. elegans strain CL2331 (Aβ3-42-GFP); test: Confocal microscopy of Aβ3-42-GFP deposits in C. elegans CL2331; format: in vivo, Caenorhabditis elegans; details: 10 μM AβC5-34 or 5 μM AβC5-116
Protocol: We followed standard procedures for C. elegans strains maintenance at 16° C. The following strains were used: CL2179: dvIs179 [myo-3p::GFP::3′UTR(long)+rol-6(su1006)] (available on the world wide web at: cgc.cbs.umn.edu/strain.php?id=26134); CL2331: dvIs37 [myo-3p::GFP::Aβ(3-42)+rol-6(su1006)] (available on the world wide web at: cgc.cbs.umn.edu/strain.php?id=26135); CL4176: smg-1(cc546) I; dvIs27 [myo-3::Aβ(1-42)-let 3′UTR(pAF29); pRF4 (rol-6(su1006)] (available on the world wide web at: cgc.cbs.umn.edu/strain.php?id=7663).
For Aβ3-42 deposit measurements, synchronized (at the L4 larval stage) CL2331 and CL2179 (control strain) animals exposed to solvent (0.26% DMSO), 10 μM AβC5-34 or 5 μM AβC5-116 and grown at 20° C. (to induce aggregation) until day 2 of adulthood were collected. Animals were mounted onto 2% agarose pads on glass slides, anesthetized with 10 mM levamisole and observed at RT using a Leica TCS SPE confocal laser scanning microscope (Leica Lasertechnik GmbH, Germany). The LAS AF software was used for image acquisition. At least twenty animals/condition in three independent experiments were processed. Images of whole worms and focused images in the posterior area of nematodes were acquired with 10×0.45 and 20×0.70 numerical aperture, respectively.

Structure (SMILES)	neurotoxicity of Aβ40 [1]	neurotoxicity of Aβ42 [1]	growth-promoting effects or cytotoxicity of peptide on its own [1]	growth-promoting effects or cytotoxicity of peptide on its own [2]	Aβ-induced toxicity in U87MG [2]	Aβ deposits, CL2331 [3]
C[C@@H]1NC(=O)[C@H](CO)NC(=O)[C@H]([C@@H](C)O)NC(=O)[C@@H]2CCCN2C(=O)[C@H](CO)NC1=O [AβC5-34, cyclo-SASPT] (cyclo(ASPTS))	markedly inhibit the neurotoxicity	markedly inhibit the neurotoxicity	did not exhibit general growth-promoting effects or considerable cytotoxicity	did not exhibit general growth-promoting effects or considerable cytotoxicity	toxicity-suppressing effects	significant reduction of Aβ deposits
C[C@@H]1NC(=O)[C@H]([C@@H](C)O)NC(=O)[C@H](CCCNC(=N)N)NC(=O)[C@H](CC(=O)O)NC(=O)[C@H](Cc2ccccc2)NC1=O [AβC5-116, cyclo-TAFDR] (cyclo(AFDRT))	markedly inhibit the neurotoxicity	markedly inhibit the neurotoxicity	did not exhibit general growth-promoting effects or considerable cytotoxicity	did not exhibit general growth-promoting effects or considerable cytotoxicity	toxicity-suppressing effects	significant reduction of Aβ deposits
